Source: publication PMC10294832, “Investigation of Naphthyl–Polyamine Conjugates as Antimicrobials and Antibiotic Enhancers” (Antibiotics, 2023)
“And” between values parts separate entries of the source, which are not always exact repeats. Equal entries are not always repeated.

How the values were obtained:
[1] = tested on: P. aeruginosa (PAO1 or ATCC 27853); test: Antimicrobial MIC, P. aeruginosa; assay type: cell-based; details: Pseudomonas aeruginosa; P. aeruginosa (PAO1 or ATCC 27853); mean (n = 3); read-out: MIC P. a
Procedure: (§1) The susceptibility of bacterial strains S. aureus (ATCC 25,923 or 29213), E. coli (ATCC 25922), and P. aeruginosa (ATCC 27853) to antibiotics and compounds was determined according to previously reported protocols. Additional antimicrobial evaluation against MRSA (ATCC 43300), Klebsiella pneumoniae (ATCC 700603), Acinetobacter baumannii (ATCC 19606), Candida albicans (ATCC 90028), and Cryptococcus neoformans (ATCC 208821) was undertaken at the Community for Open Antimicrobial Drug Discovery at The University of Queensland (Australia) according to their standard protocols as reported previously.

[2] = tested on: P. aeruginosa (ATCC 27853); test: Enhancement of doxycycline activity; assay type: cell-based, Pseudomonas aeruginosa; details: for Dox/P.a: concentration required to restore doxycycline activity (combination MIC): doxycycline fixed at 4.5 µM (2 µg/mL), P. aeruginosa (ATCC 27853); for Dox/P.a fold change: ratio between intrinsic MIC of test compound and combination MIC, doxycycline 4.5 µM, P. aeruginosa
E. coli (ATCC 25922) [3] = test: Antimicrobial MIC, E. coli; assay type: cell-based, Escherichia coli; details: mean (n = 2)
Procedure: as §1

E. coli (ATCC 25922) [4] = test: Enhancement of erythromycin activity; assay type: cell-based, Escherichia coli; details: for Eryth/E.c: concentration required to restore erythromycin activity (combination MIC): erythromycin fixed at 10.9 µM (8 µg/mL), E. coli (ATCC 25922); for Eryth/E.c fold change: ratio between intrinsic MIC of test compound and combination MIC, erythromycin 10.9 µM, E. coli
Procedure: Restoring enhancer concentrations were determined using previously reported protocols.

Cytotoxicity assay = assay type: cell-based, human; details: human, HEK293 human embryonic kidney cells, concentration at 50% cytotoxicity on HEK293 cells; mean (n = 2)
Procedure: Cytotoxicity assays were conducted using the protocols previously reported.

MRSA (ATCC 43300) = test: Antimicrobial MIC, MRSA; assay type: cell-based, methicillin-resistant Staphylococcus aureus; details: Staphylococcus aureus, MRSA (ATCC 43300); mean (n = 2); read-out: MIC MRSA
Procedure: as §1

human red blood cells = test: Hemolytic assay; assay type: cell-based; details: concentration at 10% hemolytic activity on human red blood cells; mean (n = 2)
Procedure: Hemolysis assays were conducted using the protocols previously reported.

[5] = tested on: A. baumannii (ATCC 19606); test: Antimicrobial MIC, A. baumannii; assay type: cell-based, Acinetobacter baumannii; details: Acinetobacter baumannii, ATCC19606, A. baumannii (ATCC 19606); mean (n = 2)
Procedure: as §1

C. albicans (ATCC 90028) = test: Antifungal MIC, C. albicans; assay type: cell-based; details: Candida albicans, ATCC90028, mean (n = 2)
Procedure: as §1

[6] = tested on: S. aureus (ATCC 25,923 or ATCC 29213); test: Antimicrobial MIC, S. aureus; assay type: cell-based, Staphylococcus aureus; details: mean (n = 3)
Procedure: as §1

[7] = tested on: K. pneumoniae (ATCC 700603); test: Antimicrobial MIC, K. pneumoniae; assay type: cell-based; details: Klebsiella pneumoniae, ATCC700603, mean (n = 2)
Procedure: as §1

[8] = tested on: C. neoformans (ATCC 208821); test: Antifungal MIC, C. neoformans; assay type: cell-based, Cryptococcus neoformans; details: Cryptococcus neoformans, ATCC208821, C. neoformans (ATCC 208821); mean (n = 2)
Procedure: as §1

[9] = Escherichia coli, ATCC25922, E. coli (ATCC 25922)

SMILES | MIC [1] [µM] | Dox/P.a: concentration required to restore doxycycline activity (combination MIC) [2] | Dox/P.a fold change [2] [fold] | MIC (E. coli (ATCC 25922) [3]; [9]) [µM] | Eryth/E.c: concentration required to restore erythromycin activity (combination MIC) (E. coli (ATCC 25922) [4]) [µM] | Eryth/E.c fold change (E. coli (ATCC 25922) [4]) [fold] | IC50 (Cytotoxicity assay) [µM] | MIC (MRSA (ATCC 43300)) [µM] | Hemolysis HC10 (human red blood cells) [µM] | MIC [5] [µM] | MIC (C. albicans (ATCC 90028)) [µM] | MIC ([6]; Staphylococcus aureus) [µM] | MIC [7] [µM] | MIC [8] [µM] | MIC (E. coli (ATCC 25922) [3]; E. coli (ATCC 25922)) [µM] | MIC [6] [µM]
O=C(CCC(=O)Nc1cccc2ccccc12)NCCCNCCCCCCNCCCNC(=O)CCC(=O)Nc1cccc2ccccc12.O=C(O)C(F)(F)F.O=C(O)C(F)(F)F [Compound 18b, N^1,N^6-Bis(3-(4-(naphthalen-1-ylamino)-4-oxobutanamido)propyl)hexane-1,6-diaminium 2,2,2-trifluoroacetate] | > 200 | 100 µM | > 2 | > 200 | 200 | 1 | > 35.2 | > 35.2 | >35.2 | > 35.2 | > 35.2 | > 200 | > 35.2 | > 35.2 |  | 
O=C(CCC(=O)Nc1cccc2ccccc12)NCCCNCCCCCCCNCCCNC(=O)CCC(=O)Nc1cccc2ccccc12.O=C(O)C(F)(F)F.O=C(O)C(F)(F)F [Compound 18c, N^1,N^7-Bis(3-(4-(naphthalen-1-ylamino)-4-oxobutanamido)propyl)heptane-1,7-diaminium 2,2,2-trifluoroacetate] | 200 | 12.5 µM | 16 | 200 | 200 | 1 | > 34.7 | > 34.7 | >34.7 | > 34.7 | > 34.7 | > 200 | > 34.7 | > 34.7 |  | 
O=C(CCC(=O)Nc1cccc2ccccc12)NCCCNCCCCCCCCNCCCNC(=O)CCC(=O)Nc1cccc2ccccc12.O=C(O)C(F)(F)F.O=C(O)C(F)(F)F [Compound 18d, N^1,N^8-Bis(3-(4-(naphthalen-1-ylamino)-4-oxobutanamido)propyl)octane-1,8-diaminium 2,2,2-trifluoroacetate] | > 107 | > 107 µM | 1 | > 107 | 107 | 1 | > 34.2 | > 34.2 | >34.2 | > 34.2 | > 34.2 | 107 | > 34.2 | > 34.2 |  | 
O=C(CCC(=O)Nc1cccc2ccccc12)NCCCNCCCCCCCCCCNCCCNC(=O)CCC(=O)Nc1cccc2ccccc12.O=C(O)C(F)(F)F.O=C(O)C(F)(F)F [Compound 18e, N^1,N^10-Bis(3-(4-(naphthalen-1-ylamino)-4-oxobutanamido)propyl)decane-1,10-diaminium 2,2,2-trifluoroacetate] | 518 | 207 µM | 2.5 | 518 | 51.8 | 10 | > 33.2 | 33.2 | >33.2 | > 33.2 | > 33.2 | 104 | > 33.2 | 33.2 |  | 
O=C(CCC(=O)Nc1cccc2ccccc12)NCCCNCCCCCCCCCCCCNCCCNC(=O)CCC(=O)Nc1cccc2ccccc12.O=C(O)C(F)(F)F.O=C(O)C(F)(F)F [Compound 18f, N^1,N^12-Bis(3-(4-(Naphthalen-1-ylamino)-4-oxobutanamido)propyl)dodecane-1,12-diaminium 2,2,2-trifluoroacetate] | > 100 | 50.3 µM | > 2 | 6.3 to 12.5 | 6.29 | 2 | > 32.2 | ≤ 0.25 | >32.2 | > 32 | > 32 | 3.12 | > 32 | ≤ 0.25 | 12.5 | 3.15
O=C(NCCCNCCCCCCNCCCNC(=O)c1ccc2ccccc2c1)c1ccc2ccccc2c1.O=C(O)C(F)(F)F.O=C(O)C(F)(F)F [Compound 19b, N^1,N^6-Bis(3-(2-naphthamido)propyl)hexane-1,6-diaminium 2,2,2-trifluoroacetate] | > 130 | 65.2 µM | > 2 | 130 | 65.2 | 2 | > 41.7 | 41.7 | >41.7 | > 41.7 | > 41.7 | 65.2 | > 41.7 | 20.9 |  | 
O=C(NCCCNCCCCCCCNCCCNC(=O)c1ccc2ccccc2c1)c1ccc2ccccc2c1.O=C(O)C(F)(F)F.O=C(O)C(F)(F)F [Compound 19c, N^1,N^7-Bis(3-(2-naphthamido)propyl)heptane-1,7-diaminium 2,2,2-trifluoroacetate] | 32 | 4.0 µM and 4.00 µM | 8 | 16 | 4.0 | 4 | 20.5 | ≤ 0.32 | >41.0 | > 41 | > 41 | 16 | > 41 | ≤ 0.32 |  | 
O=C(NCCCNCCCCCCCCNCCCNC(=O)c1ccc2ccccc2c1)c1ccc2ccccc2c1.O=C(O)C(F)(F)F.O=C(O)C(F)(F)F [Compound 19d, N^1,N^8-Bis(3-(2-naphthamido)propyl)octane-1,8-diaminium 2,2,2-trifluoroacetate] | 126 | 15.7 µM | 8 | 126 | 15.7 | 8 | > 40.3 | 40.3 | >40.3 | > 40.3 | > 40.3 | 7.9 | > 40.3 | 40.3 |  | 
